Where a SMILES comes first, the peptide text is derived from it. The star is where a group is joined. Palmitoyl = CCCCCCCCCCCCCCCC(=O)*
How the values were obtained:
[1] = target: T1, PAR1 (Homo sapiens, UniProt P25116); assay: Human platelet aggregation, PAR1 agonist SFLLRN; type: cell-based; conditions: gel filtered human platelets, SFLLRN 2.5 μM
T1 construct: Platelets were isolated from platelet rich plasma (PRP) using Sepharose 2B columns; endogenous in cells; host or cells: human platelets from healthy donors, gel-filtered
T1 sequence (P25116 22-425): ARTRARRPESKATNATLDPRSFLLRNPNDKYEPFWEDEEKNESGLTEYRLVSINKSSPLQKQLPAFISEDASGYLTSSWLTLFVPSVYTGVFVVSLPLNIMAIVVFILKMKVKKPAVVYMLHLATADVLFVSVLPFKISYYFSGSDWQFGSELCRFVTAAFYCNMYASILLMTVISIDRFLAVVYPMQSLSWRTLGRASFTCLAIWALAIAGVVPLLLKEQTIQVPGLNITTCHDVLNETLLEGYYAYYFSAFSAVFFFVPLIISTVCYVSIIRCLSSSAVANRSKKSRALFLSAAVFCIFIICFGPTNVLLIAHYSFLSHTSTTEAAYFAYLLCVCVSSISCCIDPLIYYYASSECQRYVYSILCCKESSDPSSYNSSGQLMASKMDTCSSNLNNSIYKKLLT
Description: (§1) A, Depiction of the mechanism of action of the cell-penetrating PZ-128 pepducin compound targeting the third intracellular loop (red) of PAR1. B, The NMR structure of PZ-128 was determined by simulated annealing methods using 210 distance restraints and included restraints to the proximal 3 hydrocarbons of the lipid. […] D, PZ-128 inhibits PAR1-dependent platelet aggregation. Gel filtered human platelets were treated with various concentrations of PZ-128 and then challenged with the PAR1 agonist SFLLRN (2.5 μM), 20 μM ADP, 200 μM AYPGKF or 1 mg/ml Ristocetin. E, Human platelets were treated with 3 μM PZ-128, 3 μM RWJ-56110, or 5% dextrose vehicle before the addition of various concentrations of thrombin (n=3-5).
(§2) PZ-128 also markedly right-shifted thrombin-induced aggregation by 5-fold. By comparison, the small molecule RWJ-56110 which antagonizes PAR1 at the extracellular ligand-binding site gave a 2-fold right shift in the thrombin activation curve of human platelets.
(§3) Whole blood from healthy donors was collected into a 30 ml syringe containing sodium citrate (0.4% vol/vol final). Platelets were isolated from platelet rich plasma (PRP) using Sepharose 2B columns in modified PIPES buffer.

[2] = test system: human platelets (Ristocetin); assay: Human platelet aggregation, ristocetin; type: cell-based; conditions: 1 mg/ml Ristocetin
Description: as §1, §2, §3

[3] = test system: PAR1; assay: Guinea pig ex vivo platelet aggregation to SFLLRN after iv infusion; type: in vivo; conditions: 3 and 6 mg/kg, 10 min iv infusion, 15 min time point, 2.5 μM SFLLRN
Description: PZ-128 or 5% dextrose USP vehicle was infused for 10 min into the jugular vein of male and female guinea pigs (0.55-0.65 kg). A-C, At the 15 min time point, whole blood was collected by cardiac puncture in 100 μg/ml PPACK/4% Na-citrate (final) anti-coagulant and platelet rich plasma (PRP) prepared and aggregation measurements were performed. […] B-C, PRP obtained at the 15 min time point after infusion with vehicle, 3 mg/kg PZ-128 or 6 mg/kg PZ128 was challenged with 2.5 μM SFLLRN, 20 μM ADP or 20 μM thromboxane mimetic, U46119. Individual data points (n=3) are overlayed on bar graphs depicting mean±SD. […] Data in B-D were analyzed by the non-parametric Kruskal-Wallis test with the Dunn's multiple pairwise comparison post-test.
PZ-128 micelles were delivered by internal jugular vein infusions over 10 min.
Guinea pigs weighing 600-650 g were used for platelet aggregation experiments. PZ-128 micelles (3 or 6 mg/kg) were administered by a 10 min intravenous infusion, and blood was collected by cardiac puncture into sodium citrate (0.4% vol/vol final) 5 minutes after cessation of the infusion. PRP was prepared and PPACK added to a final concentration of 100 μg/ml. PRP was calcified with 2.5 mM CaCl2 and aggregation was performed as described above.

[4] = test system: PAR1; assay: Baboon ex vivo platelet aggregation, SFLLRN (PAR1); type: in vivo
Description: (§4) A-C, Male baboons (10-12 kg) were administered 1, 3 or 6 mg/kg PZ-128, or 5% dextrose USP vehicle by iv infusion and blood collected into 100 μg/ml PPACK anticoagulant at 0, 1, 2, 6, or 24 h time points. Light transmission platelet aggregometry was performed with platelet rich plasma with the indicated agonists (SFLLRN for PAR1, AYPGKF for PAR4 and ADP for P2Y12 and P2Y1). Data are reported as mean±SD (n=3-7) relative to time 0 controls (0%) and were analyzed by repeated measures one-way ANOVA with Bonferroni post-test correction; *P<0.05, **P<0.01 relative to time 0. Global P values were >0.05 for 1 mg/kg, 0.004 for 3 mg/kg, <0.0001 for 6 mg/kg. D, Pharmacokinetics of 3 and 6 mg/kg 45-min iv infusions of PZ-128 in male baboons. Plasma PZ-128 levels were measured by LC/MS/MS at 9 sequential time points: baseline, 15 min, 30 min, 1 h, 2 h, 4 h, 8 h, 24 h and 48 h after the start of infusion. Open symbols indicated plasma concentrations that were under the measurement threshold (5 ng/ml).
The anti-platelet effects of PZ-128 micelles were next examined in baboons at various time points after receiving different doses of intravenous infusions. […] At the lowest dose tested, 1 mg/kg PZ-128 micelles ([…]), PAR1-dependent aggregation (5 μM SFLLRN) was inhibited by only 5-10% at the 1-2 h time points (FIG. 3A). […] As a further assessment of in vivo specificity, PZ-128 gave no inhibition at any dose of either the ADP or AYPGKF (PAR4) responses at any time point.
Non-terminal thrombosis and platelet aggregation studies were performed on 12 healthy male baboons (Papio anubis) weighing 9-12 kg at the Oregon National Primate Research Center (ONPRC). […] Whole blood (10 ml) was collected into PPACK at a final concentration of 100 μg/ml just prior to infusion (baseline) and 15 min to 24 h after the PZ-128 micelle infusion was terminated. Platelet counts and hematocrit were measured immediately. PRP was prepared from whole blood and platelet aggregation performed as described above. Bleeding time (BT) measurements were performed on the shaved volar surface of the forearm using the standard template method.

[5] = Pharmacokinetics of PZ-128 in baboon plasma (LC/MS/MS); type: in vivo
Description: as §4
The maximal plasma concentration of PZ-128 was 14 μmol/L at the 6 mg/kg dose and 5.6 μmol/L for the 3 mg/kg dose. […] The pharmacokinetic and anti-platelet pharmacodynamic properties of PZ-128 micelles indicate that this lipopeptide reaches maximal activity during and immediately after intravenous infusion and is completely eliminated by the next day.
Various doses of PZ-128 micelles were infused intravenously for 45 min to baboons. At sequential time points, whole blood was drawn into 3.2% citrate buffer and immediately centrifuged at 3000 rpm for 10 min. Platelet-poor plasma (PPP) samples were harvested and stored at −80° C. PZ-128 drug levels in PPP samples were determined was using an API 4000 LC/MS/MS system (Agilux Laboratories, Worcester, Mass.).

## CCCCCCCCCCCCCCCC(=O)N[C@@H](CCCCN)C(=O)N[C@@H](CCCCN)C(=O)N[C@@H](CO)C(=O)N[C@@H](CCCNC(=N)N)C(=O)N[C@@H](C)C(=O)N[C@@H](CC(C)C)C(=O)N[C@@H](Cc1ccccc1)C(N)=O [PZ-128, palmitate-KKSRALF-NH2] (Palmitoyl-KKSRALF-NH2)
[1]
  Extent of inhibition of human platelet aggregation in response to SFLLRN: completely inhibited
[1]; read-out: IC50, inhibition of human platelet aggregation in response to PAR1 agonist SFLLRN
  IC50: 500 nM
[2]
  Inhibitory activity against ristocetin aggregation: no inhibitory activity
[3]
  Inhibition of ex vivo platelet aggregation to SFLLRN: significant, dose-dependent inhibition
[4]; 1 mg/kg, 30 min infusion, 5 μM SFLLRN, 1-2 h
  Inhibition of PAR1-dependent ex vivo aggregation: 5-10%
[4]; 3 mg/kg and 6 mg/kg, 10 μM SFLLRN
  Reversibility: inhibition with higher concentration of SFLLRN agonist: loss of inhibition
[4]; 3 mg/kg, 30 min infusion, 1 h and 2 h
  Inhibition of PAR1-dependent ex vivo aggregation: 85%
[4]; 3 mg/kg, 24 h
  Inhibition of PAR1-dependent ex vivo aggregation: not appreciably inhibited
[4]; 6 mg/kg, 45 min infusion, 1-2 h
  Inhibition of PAR1-dependent ex vivo aggregation: 100%
[4]; 6 mg/kg, 45 min infusion, 6 h
  Inhibition of PAR1-dependent ex vivo aggregation: 90%
[4]; 6 mg/kg, 24 h
  PAR1-dependent ex vivo aggregation, recovery: completely recovered
[5]; 3 and 6 mg/kg iv infusion
  Plasma half life: 50 to 80 min
[5]; 24-48 h, measurement threshold 5 ng/ml
  Plasma level at late time points: not detectable
[5]; by 8 h
  Clearance from plasma: nearly completely cleared
[5]; male, plasma, iv, 3 and 6 mg/kg iv infusion
  half-life: 50 to 81 min

From patent US9878054B2, “Polypeptide and lipophilic moiety conjugate compositions, formulations, and uses related thereto” (Tufts Medical Center, Inc., priority 2012, dated 2018)
